The text below walks through data of patent US7605241B2, “Synthesis of inhibitors of p90Rsk” (University of Virginia Patent Foundation, priority 2005, dated 2009).

The subject of experiment [1] is MEK. The settings on record: upstream kinase; cited from earlier work.
For experiment [2], the system named is Raf. The note with it: upstream kinase; cited from earlier work.
Experiment [3] deals with PKC. The settings on record: upstream kinase; cited from earlier work.
For experiment [4], the target named is p90 RSK (Homo sapiens, UniProt P51812). Put plainly: inhibition of the kinase activity of p90 RSK (Table 1). It counts as biochemical. The source says: Methods for testing the ability of SL0101, and analogs and derivatives thereof, synthesized according to the methods disclosed herein, to inhibit p90 ribosomal S6 kinase (RSK) activity and cellular and metabolic processes downstream from RSK activity, are known to those of ordinary skill in the art. Some specific assays are provided in citation number 5 (Smith et al., Cancer Res., 2005, 65:1027), which is incorporated by reference in its entirety. The assays include various kinase assays, cell cycle analysis, gene silencing, and analysis of cells and tissues in vitro and in vivo.
Some specific assays are provided in citation number 5 (Smith et al., Cancer Res., 2005, 65:1027), which is incorporated by reference in its entirety.

Sequence of p90 RSK (P51812 whole entry): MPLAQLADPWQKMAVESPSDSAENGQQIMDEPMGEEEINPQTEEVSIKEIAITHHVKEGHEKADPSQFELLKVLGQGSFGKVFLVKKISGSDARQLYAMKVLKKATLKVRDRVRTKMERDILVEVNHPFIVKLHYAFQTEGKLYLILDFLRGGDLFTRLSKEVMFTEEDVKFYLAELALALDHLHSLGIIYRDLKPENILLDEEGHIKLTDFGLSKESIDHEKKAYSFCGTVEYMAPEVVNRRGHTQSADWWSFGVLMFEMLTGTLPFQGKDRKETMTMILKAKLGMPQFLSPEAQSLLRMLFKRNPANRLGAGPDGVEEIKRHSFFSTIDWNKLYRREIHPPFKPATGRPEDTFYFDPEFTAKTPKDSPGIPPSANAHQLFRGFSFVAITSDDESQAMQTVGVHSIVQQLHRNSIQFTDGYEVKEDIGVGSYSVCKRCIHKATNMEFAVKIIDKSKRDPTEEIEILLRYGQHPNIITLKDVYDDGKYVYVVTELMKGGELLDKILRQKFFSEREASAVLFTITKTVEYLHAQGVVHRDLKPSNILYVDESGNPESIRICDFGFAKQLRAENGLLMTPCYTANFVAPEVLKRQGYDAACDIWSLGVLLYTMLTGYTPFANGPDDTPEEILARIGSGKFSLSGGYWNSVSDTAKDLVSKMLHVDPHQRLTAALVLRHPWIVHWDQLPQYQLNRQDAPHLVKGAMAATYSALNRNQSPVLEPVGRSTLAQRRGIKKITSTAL

For the compound `CC(=O)OC1C(C)OC(Oc2c(-c3ccc(O)cc3)oc3cc(O)cc(O)c3c2=O)C(O)C1OC(C)=O` (centres unmarked) [SL0101-1], the “inhibition of MEK” value in experiment [1] is on record as “not to inhibit”. For the same compound, the “inhibition of Raf” value in experiment [2] is “not to inhibit”. For the same compound, the “inhibition of PKC” value in experiment [3] is “not to inhibit”.

Broadly, the IC50 is the concentration needed to halve the response being measured. In experiment [4], `CC(=O)OC1C(C)OC(Oc2c(-c3ccc(O)cc3)oc3cc(O)cc(O)c3c2=O)C(O)C1O` (centres unmarked) [SL0101-2] had an IC50 of 189 nM.

Take `CC(=O)OC1C(C)OC(Oc2c(-c3ccc(O)cc3)oc3cc(O)cc(O)c3c2=O)C(OC(C)=O)C1O` (centres unmarked) [SL0101-3]: inhibition in experiment [4] was half-maximal at 580 nM (IC50). Compared with the last compound, the IC50 is about 3.1-fold higher.
